Data reported in US20240156825A1, “USE OF SELECTIVE VEGFR2 AND FGFR1 INHIBITORS” (Fountain Therapeutics Inc., priority 2022, published 2024).
Read-outs that look alike come from different tables or passages of the source.

Experiments:
[1] = biological target: T1, VEGFR2 (Homo sapiens, UniProt P35968); conditions: reported IC50 to VEGFR2, read-out: VEGFR2 IC50_μM, cited from earlier work
[2] = system: any gene target; conditions: cited from earlier work
[3] = biological target: T1, VEGFR2; conditions: relative IC50: reported IC50 toward VEGFR2 divided by next lowest reported IC50 to any gene target
[4] = Table 3, selective inhibitors of VEGFR2
[5] = next lowest IC50 value to any gene target, Table 3, read-out: Min IC50_μM
[6] = next lowest IC50 value to any gene target, read-out: Min IC50_μM

T1 sequence (P35968 20-1356, species assumed): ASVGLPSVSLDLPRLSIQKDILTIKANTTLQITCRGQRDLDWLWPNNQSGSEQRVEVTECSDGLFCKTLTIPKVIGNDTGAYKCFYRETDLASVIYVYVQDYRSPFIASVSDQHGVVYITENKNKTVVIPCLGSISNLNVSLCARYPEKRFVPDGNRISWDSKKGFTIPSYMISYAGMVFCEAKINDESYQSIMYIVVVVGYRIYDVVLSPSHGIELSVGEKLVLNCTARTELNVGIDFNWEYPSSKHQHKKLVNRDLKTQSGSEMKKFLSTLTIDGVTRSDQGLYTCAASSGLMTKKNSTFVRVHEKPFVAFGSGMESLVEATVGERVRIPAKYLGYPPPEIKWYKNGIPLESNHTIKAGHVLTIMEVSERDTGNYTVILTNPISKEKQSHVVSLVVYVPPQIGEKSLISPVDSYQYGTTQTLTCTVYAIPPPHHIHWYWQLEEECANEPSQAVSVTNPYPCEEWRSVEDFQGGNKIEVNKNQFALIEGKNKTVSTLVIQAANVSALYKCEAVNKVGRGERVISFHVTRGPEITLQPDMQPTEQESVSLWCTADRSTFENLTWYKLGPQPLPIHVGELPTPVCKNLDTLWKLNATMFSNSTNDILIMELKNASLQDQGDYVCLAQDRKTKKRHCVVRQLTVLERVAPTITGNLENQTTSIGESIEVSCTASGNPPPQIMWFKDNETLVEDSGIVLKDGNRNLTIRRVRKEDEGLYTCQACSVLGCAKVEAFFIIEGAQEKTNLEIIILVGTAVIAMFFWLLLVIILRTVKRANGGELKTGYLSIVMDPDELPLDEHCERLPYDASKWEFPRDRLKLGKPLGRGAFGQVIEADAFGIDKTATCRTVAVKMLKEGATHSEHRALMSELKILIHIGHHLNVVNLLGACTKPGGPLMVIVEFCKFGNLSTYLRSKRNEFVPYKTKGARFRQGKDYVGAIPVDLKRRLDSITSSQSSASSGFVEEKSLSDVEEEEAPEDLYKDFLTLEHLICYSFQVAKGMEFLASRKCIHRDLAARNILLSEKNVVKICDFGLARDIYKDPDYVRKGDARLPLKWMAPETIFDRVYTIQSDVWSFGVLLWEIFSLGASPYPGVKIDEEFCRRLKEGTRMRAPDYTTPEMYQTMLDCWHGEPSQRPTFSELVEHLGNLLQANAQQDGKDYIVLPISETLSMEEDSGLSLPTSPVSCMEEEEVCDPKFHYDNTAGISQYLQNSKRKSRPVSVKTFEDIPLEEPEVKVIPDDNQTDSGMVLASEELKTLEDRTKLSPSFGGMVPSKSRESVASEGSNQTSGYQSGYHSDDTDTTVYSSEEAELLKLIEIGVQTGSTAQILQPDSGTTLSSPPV

| VEGFR2, rIC50 [3] | SMILES | IC50 [1] [nM] | IC50 [2, 6] [nM] | also measured |
| --- | --- | --- | --- | --- |
| 1.0 | CONC(=O)c1cc(Nc2ncnn3cc(-c4nnc(CC5CC5)o4)c(C(C)C)c23)c(F)cc1F [compound 11155938, 5-[6-(5-Cyclopropylmethyl-[1,3,4]oxadiazol-2-yl)-5-isopropyl-pyrrolo[2,1-f][1,2,4]triazin-4-ylamino]-2,4-difluoro-N-methoxy-benzamide, reference compound] |  |  | IC50 [1, 4]: 4 nM; IC50 ([2]; lowest reported IC50 to any gene target, read-out: min IC50): 4 nM; IC50 [2, 5]: 4 nM |
| 0.6 | CCN1CCC(Nc2ccc3[nH]c(O)c(C(=C4N=c5ccccc5=N4)c4cccc(F)c4)c3c2)CC1 [compound 135488014, 3-[Benzimidazol-2-ylidene-(3-fluorophenyl)methyl]-5-[(1-ethylpiperidin-4-yl)amino]-1H-indol-2-ol] |  |  |  |
| 1.3 | COC(=O)c1ccc2c(c1)NC(=O)/C2=C(\Nc1ccc(N(CC(=O)N(C)C)C(C)=O)cc1)c1ccccc1 [compound 135456052, Methyl (3Z)-3-[[4-[acetyl-[2-(dimethylamino)-2-oxoethyl]amino]anilino]-phenylmethylidene]-2-oxo-1H-indole-6-carboxylate] |  |  |  |
| 5.6 | Nc1c(C(=O)c2cc3cc(CN4CCOCC4)ccc3[nH]2)cnn1-c1cc(O)ccc1Cl [compound 134156584, [5-Amino-1-(2-chloro-5-hydroxyphenyl)pyrazol-4-yl]-[5-(morpholin-4-ylmethyl)-1H-indol-2-yl]methanone] |  |  |  |
| 1.6 | CCN1CCC(Nc2ccc3[nH]c(O)c(C(=C4N=c5ccccc5=N4)c4ccc(C)cc4)c3c2)CC1 [compound 135507297, 3-[Benzimidazol-2-ylidene-(4-methylphenyl)methyl]-5-[(1-ethylpiperidin-4-yl)amino]-1H-indol-2-ol] |  |  |  |
| 2.0 | CCN1CCC(Nc2ccc3[nH]c(O)c(C(=C4N=c5ccccc5=N4)c4ccccc4)c3c2)CC1 [compound 135405015, 3-[Benzimidazol-2-ylidene(phenyl)methyl]-5-[(1-ethylpiperidin-4-yl)amino]-1H-indol-2-ol] |  |  |  |
| 3.0 | COC(=O)c1ccc2c(c1)NC(=O)/C2=C(\Nc1ccc(N(CCCN(C)C)C(C)=O)cc1)c1ccccc1 [compound 135405065] |  |  |  |
| 10.3 | Nc1c(C(=O)c2cc3ccccc3[nH]2)cnn1-c1ccc2nc[nH]c2c1 [compound 68005732, [5-Amino-1-(1H-benzimidazol-6-yl)-1H-pyrazol-4-yl]-1H-indol-2-ylMethanone] |  |  |  |
| 0.7 | CCN1CCC(Nc2ccc3[nH]c(O)c(C(=C4N=c5ccccc5=N4)c4cc(F)cc(F)c4)c3c2)CC1 [compound 135546228, 3-[Benzimidazol-2-ylidene-(3,5-difluorophenyl)methyl]-5-[(1-ethylpiperidin-4-yl)amino]-1H-indol-2-ol] |  |  |  |
| 2.2 | COC(=O)c1ccc2c(C(=Nc3ccc(C(=O)N(C)CCN(C)C)cc3)c3ccccc3)c(O)[nH]c2c1 [compound 135452890, Methyl 3-[N-[4-[2-(dimethylamino)ethyl-methylcarbamoyl]phenyl]-C-phenylcarbonimidoyl]-2-hydroxy-1H-indole-6-carboxylate] |  |  |  |
| 1.0 | CONC(=O)c1cc(Nc2ncnn3cc(NC(=O)OCC4CCCO4)c(C(C)C)c23)c(F)cc1F (centres unmarked) [compound 11477626, [4-(2,4-Difluoro-5-methoxycarbamoyl-phenylamino)-5-isopropyl-pyrrolo[2,1-f][1,2,4]triazin-6-yl]-carbamic acid tetrahydro-furan-2-ylmethyl ester] |  |  |  |
| 2.3 | COC(=O)c1ccc2c(c1)NC(=O)C2=C(Nc1ccc(CN(C)C)cc1)c1ccccc1 [compound 135522918, Methyl 3-[[4-[(dimethylamino)methyl]anilino]-phenylmethylidene]-2-oxo-1H-indole-6-carboxylate] |  |  |  |
|  | CCCN1CCCOC(COc2cc3ncnc(Nc4ccc(Cl)c(Cl)c4)c3cc2OC)C1 (centres unmarked) [compound 57802675] | 50 | 50 |  |
|  | C[C@@H](Nc1ncnc2[nH]c(-c3ccc(CN4CCN(CCCCC(=O)NO)CC4)cc3)cc12)c1ccccc1 [compound 24900441] | 100 | 100 |  |
|  | COc1cc2c(Nc3ccc(Cl)c(Cl)c3F)ncnc2cc1OC[C@@H]1CN2CCC[C@H]2C(=O)N1C [compound 53630920] |  |  | IC50 [1, 4]: 50 nM; IC50 [2, 5]: 50 nM |
|  | Cc1nc2cc(N(C)c3ccnc(Nc4cccc(S(N)(=O)=O)c4)n3)ccc2n1C [compound 10273854] | 17 | 9000 |  |
|  | COC(=O)c1ccc2c(C(=Nc3ccc(N(C)C(=O)Cn4ccnc4)cc3)c3ccccc3)c(O)[nH]c2c1 [compound 135399795] | 6 | 7 |  |
| 2.4 | COC(=O)c1ccc2c(c1)NC(=O)/C2=C(\Nc1ccc(N(CCN(C)C)C(C)=O)cc1)c1ccccc1 [compound 135528963, Methyl (3Z)-3-[[4-[acetyl-[2-(dimethylamino)ethyl]amino]anilino]-phenylmethylidene]-2-oxo-1H-indole-6-carboxylate] |  |  |  |
|  | C[C@@H](Nc1ncnc2[nH]c(-c3ccc(CNCc4ccc(C(=O)NO)cc4)cc3)cc12)c1ccccc1 [compound 59756709] |  |  | IC50 [1, 4]: 100 nM; IC50 [2, 5]: 100 nM |
|  | COc1cc2c(Nc3ccc(Cl)cc3F)ncnc2cc1OCC1CCN(C)CC1 [compound 23133320] | 15 | 50 |  |
|  | COc1cc2c(Nc3cc(Cl)c(Cl)cc3F)ncnc2cc1OC[C@H]1CN2CCOC[C@H]2CO1 [compound 10346203] |  |  | IC50 [1, 4]: 50 nM; IC50 [2, 5]: 50 nM |
|  | Cc1ccc(C(=O)Nc2cccc(C(F)(F)F)c2)cc1Nc1nc2ccccc2n1-c1cc(NCCC#N)ncn1 [compound 46879446] | 245 | 275 |  |

| VEGFR2, rIC50 [3] | SMILES | IC50 [1] [nM] | IC50 [2, 6] [nM] | also measured |
| --- | --- | --- | --- | --- |
|  | CN(c1ccc(F)c(NC(=O)c2cccc(OC(C)(C)C#N)c2Cl)c1)c1ccc2nc(NC(=O)C3CC3)sc2n1 [compound 25206346] | 1.2 | 23 |  |
|  | C[C@@H](Nc1ncnc2[nH]c(-c3ccc(C(=O)NCCNCCCCCC(=O)NO)cc3)cc12)c1ccccc1 [compound 24900641] | 100 | 100 |  |
| 2.3 | COC(=O)c1ccc2c(c1)NC(=O)/C2=C(\Nc1ccc(N(CCN(C)C)S(C)(=O)=O)cc1)c1ccccc1 [compound 135456078, Methyl (3Z)-3-[[4-[2-(dimethylamino)ethyl-methylsulfonylamino]anilino]-phenylmethylidene]-2-oxo-1H-indole-6-carboxylate] |  |  |  |
|  | CC(C)(Nc1nc(Nc2ccc3ncsc3c2)[nH]c(=O)n1)c1ccccc1 [compound 135454992] | 35 | 550 |  |
|  | COc1cc(C2=C(c3c[nH]c4ccccc34)CNC2=O)cc(OC)c1OC [compound 24894117] | 31 | 37 |  |
|  | COc1cc2c(Nc3ccc(Cl)c(Cl)c3)ncnc2cc1OC[C@H]1CN2CCC[C@@H]2CO1 [compound 57802880] |  |  | IC50 [1, 4]: 50 nM; IC50 [2, 5]: 50 nM |
|  | COCCOc1cc2ncnc(Nc3cc(O)c(Cl)cc3F)c2cc1OC [compound 5329013] |  |  | IC50 [1, 4]: 2 nM; IC50 [2, 5]: 2 nM |
|  | COc1cc2c(Nc3ccc(Cl)c(Cl)c3)ncnc2cc1OCC1CN2CSC[C@H]2CO1 (some centres unmarked) [compound 57802698] | 50 | 50 |  |
|  | COc1cc2c(Nc3ccc(C)c(Cl)c3Cl)ncnc2cc1OCC1CN(C)CCO1 (centres unmarked) [compound 57802779] | 50 | 50 |  |
|  | COc1cc2c(Nc3ccc(Cl)c(Cl)c3)ncnc2cc1OC[C@@H]1O[C@@H](OC)[C@@H](O)[C@H](O)[C@H]1O [compound 57802800] | 50 | 50 |  |
|  | COc1cc2c(Nc3cccc(Cl)c3F)ncnc2cc1OCC1CN(C(N)=NC#N)CCCO1 (centres unmarked) [compound 134142438] |  |  | IC50 [1, 4]: 50 nM; IC50 [2, 5]: 50 nM |
|  | COc1cc2c(Nc3ccc(Cl)c(Cl)c3)ncnc2cc1OC[C@@H]1CO[C@H]2[C@@H]1OC[C@@H]2OC [compound 66955051] |  |  | IC50 [1, 4]: 50 nM; IC50 [2, 5]: 50 nM |
|  | O=C(CCCCCCCNC(=O)c1cc(Oc2ccc(NC(=O)Nc3ccc(Cl)c(C(F)(F)F)c3)cc2)ccn1)NO [compound 25071593] | 100 | 100 |  |
|  | COc1cc2c(Nc3ccc(Cl)c(Cl)c3)ncnc2cc1OCc1cscn1 [compound 10455540] |  |  | IC50 [1, 4]: 50 nM; IC50 [2, 5]: 50 nM |
|  | COc1cc2c(Nc3ccc(Br)c(Cl)c3F)ncnc2cc1OC[C@@H]1CN(C)CC(=O)N1C [compound 57802721] | 50 | 50 |  |
|  | COc1cc2c(Nc3ccc(Br)c(Cl)c3F)ncnc2cc1OCC1CN(C)C(C)(C)CO1 (centres unmarked) [compound 57802747] | 50 | 50 |  |
|  | COc1cc2ncnc(Nc3ccc(Br)cc3)c2cc1OCCCC(=O)NO [compound 127027714] | 98 | 545 |  |
|  | COc1cc2c(Nc3cc(Cl)c(Br)cc3F)ncnc2cc1OCC1CN(C)C(C)(C)CO1 (centres unmarked) [compound 57802776] | 50 | 50 |  |
|  | O=C(NC1CC1)c1cc(NCc2cnc(Nc3ccccn3)s2)c(F)cc1F [compound 11632737] | 23 | 200 |  |
|  | COc1cc2c(Nc3cc(F)c(Br)cc3F)ncnc2cc1OCC1CN(C)CCO1 (centres unmarked) [compound 57802916] |  |  | IC50 [1, 4]: 50 nM; IC50 [2, 5]: 50 nM |
|  | OCCCNc1cncc(-c2cncc(Nc3cccc(Cl)c3)n2)c1 [compound 5330387] |  |  | IC50 [1, 4]: 5 nM; IC50 [2, 5]: 5 nM |
|  | COc1cc2c(Nc3ccc(Cl)c(Cl)c3F)ncnc2cc1OC[C@H]1CN2CCOC[C@H]2CO1 [compound 10029284] |  |  | IC50 [1, 4]: 50 nM; IC50 [2, 5]: 50 nM |
